Reference: article PMC7114212 (Antiviral Research, 2006)
Read-outs that look alike come from different tables or passages of the source.

Tests used:
HIV-1 (IIIB) = conditions: read-out: HIV-1 (CEM) EC50; cited from earlier work
FIPV strain 79-1146 = test: microbe, parasite or virus in culture; type: cell-based, feline infectious peritonitis virus; conditions: read-out: FIPV (CRFK) EC50
[1] = tested on: Crandell-Reese feline kidney (CRFK) cells
CEM cells = conditions: cited from earlier work; for IC50: read-out: HIV-1 (CEM) IC50 (50% cytostatic concentration)
[2] = mouse, in vivo, cited from earlier work
FIPV = type: cell-based, feline infectious peritonitis virus

## De-Cl-eremomycin aglycon [compound 89]
HIV-1 (IIIB)
  EC50: > 125 µM
FIPV strain 79-1146
  EC50: > 100 µM
[1]
  CC50: > 100 µM
Vero cells
  CC50: > 100 µM

## Vancomycin aglycon hexapeptide [compound 69]
HIV-1 (IIIB)
  EC50: ≥ 125 µM
FIPV strain 79-1146
  EC50: > 100 µM
[1]
  CC50: > 100 µM
Vero cells
  CC50: > 100 µM

## Eremomycin aglycon hexapeptide [compound 84]
HIV-1 (IIIB)
  EC50: 115 ± 21.2 µM
CEM cells
  IC50: > 250 µM
FIPV strain 79-1146
  EC50: > 80 µM
[1]
  CC50: > 80 µM
Vero cells
  CC50: > 80 µM

## Carboxyeremomycin [compound 14]
FIPV strain 79-1146
  EC50: > 80 µM

## CN[C@H](CC(C)C)C(=O)N[C@H]1C(=O)N[C@@H](CC(N)=O)C(=O)N[C@H]2C(=O)N[C@H]3C(=O)N[C@H](C(=O)N[C@H](C(=O)O)c4cc(O)cc(O)c4-c4cc3ccc4O)[C@H](O)c3ccc(c(Cl)c3)Oc3cc2cc(c3O[C@@H]2O[C@H](CO)[C@@H](O)[C@H](O)[C@H]2O[C@H]2C[C@](C)(N)[C@H](O)[C@H](C)O2)Oc2ccc(cc2Cl)[C@H]1O [compound 1, Vancomycin]
HIV-1 (IIIB)
  EC50: > 250 µM
CEM cells
  HIV-1 (CEM) IC50 (50% cytostatic concentration): neither toxic
  IC50: > 500 µM
FIPV strain 79-1146; Alphacoronavirus 1, CRFK, 96 h
  EC50: > 80 µM
FIPV strain 79-1146
  EC50: > 100 µM
[1]
  FIPV (CRFK) CC50: neither toxic
Vero cells
  SARS-CoV (Vero) CC50: neither toxic

## demannosyl-N-deacylA40926 [compound 57]
HIV-1 (IIIB)
  EC50: 115 ± 21 µM
CEM cells
  HIV-1 (CEM) IC50 (50% cytostatic concentration): neither toxic
  IC50: > 500 µM
FIPV strain 79-1146
  EC50: > 80 µM
[1]
  FIPV (CRFK) CC50: neither toxic
Vero cells
  SARS-CoV (Vero) CC50: neither toxic

## adamantyl-2 amide of eremomycin [AN0900]
[2]; iv
  Vss: 26.285 L/kg
  half-life: 3.08 h
[2]
  tissue penetration: deep tissue penetration

## Teicoplanin [compound 52]
FIPV
  delay of addition after FIPV infection that keeps full antiviral activity: markedly less delayed
CEM cells
  HIV-1 (CEM) IC50 (50% cytostatic concentration): neither toxic
  IC50: > 500 µM
FIPV strain 79-1146
  EC50: > 80 µM
[1]
  FIPV (CRFK) CC50: neither toxic
Vero cells
  SARS-CoV (Vero) CC50: neither toxic

## Ristomycin [compound 50]
HIV-1 (IIIB)
  EC50: > 250 µM
CEM cells
  HIV-1 (CEM) IC50 (50% cytostatic concentration): neither toxic
  IC50: > 500 µM
FIPV strain 79-1146
  EC50: > 80 µM
[1]
  FIPV (CRFK) CC50: neither toxic
Vero cells
  SARS-CoV (Vero) CC50: neither toxic

## N-Deacyl-A40926 [compound 55]
HIV-1 (IIIB)
  EC50: > 250 µM
CEM cells
  HIV-1 (CEM) IC50 (50% cytostatic concentration): neither toxic
  IC50: > 500 µM
FIPV strain 79-1146
  EC50: > 80 µM
[1]
  FIPV (CRFK) CC50: neither toxic
Vero cells
  SARS-CoV (Vero) CC50: neither toxic

## Vancomycin aglycon [compound 65]
HIV-1 (IIIB)
  EC50: 65 µM
CEM cells
  IC50: > 500 µM
FIPV strain 79-1146
  EC50: > 80 µM
[1]
  CC50: > 80 µM
Vero cells
  CC50: > 80 µM

## Eremomycin [compound 7]
HIV-1 (IIIB)
  EC50: > 250 µM
CEM cells
  HIV-1 (CEM) IC50 (50% cytostatic concentration): neither toxic
  IC50: > 500 µM
FIPV strain 79-1146
  EC50: > 100 µM
[1]
  FIPV (CRFK) CC50: neither toxic
Vero cells
  SARS-CoV (Vero) CC50: neither toxic

## Ristosaminylaglycon of ristomycin [compound 51]
HIV-1 (IIIB)
  EC50: > 50 µM
CEM cells
  IC50: > 100 µM
FIPV strain 79-1146
  EC50: > 80 µM

## Eremomycin aglycon [compound 71]
HIV-1 (IIIB)
  EC50: 50 µM
CEM cells
  IC50: > 500 µM
FIPV strain 79-1146
  EC50: > 80 µM
[1]
  CC50: > 80 µM
Vero cells
  CC50: > 80 µM
